{
  "source": "PubChem BioAssay AID1259407",
  "about": "(Chemical Carcinogenesis Research Information System (CCRIS), 2018)",
  "system": "CCRIS mutagenicity, Ames/micronucleus/aberration tests",
  "experiment": "CCRIS mutagenicity studies",
  "note": "The source made the active and inactive calls. The rule behind the calls is not given here.",
  "data": [
    {"smiles": "CCN(CC)N=O", "values": [
      {"measurement": "mutagenic call", "setting": "End Point: IN VITRO MICRONUCLEUS, Test System: AHH-1 CELLS, Metabolic Activation: NONE", "value": "active; positive"},
      {"measurement": "mutagenic call", "setting": "End Point: IN VITRO MICRONUCLEUS, Test System: MCL-5 CELLS, Metabolic Activation: NONE", "value": "active; positive"},
      {"measurement": "mutagenic call", "setting": "Test System: AMES SALMONELLA TYPHIMURIUM, Strain/Indicator: TA97, Metabolic Activation: NONE, Method: PREINCUBATION", "value": "inactive; negative"},
      {"measurement": "mutagenic call", "setting": "Test System: AMES SALMONELLA TYPHIMURIUM, Strain/Indicator: TA97, Metabolic Activation: RAT LIVER S-9, AROCLOR, Method: PREINCUBATION", "value": "inactive; negative"},
      {"measurement": "mutagenic call", "setting": "Test System: AMES SALMONELLA TYPHIMURIUM, Strain/Indicator: TA98, Metabolic Activation: HAMSTER, LIVER, S-9, AROCLOR 1254 (30%), Method: PREINCUBATION", "value": "active; positive"},
      {"measurement": "mutagenic call", "setting": "Test System: AMES SALMONELLA TYPHIMURIUM, Strain/Indicator: TA98, Metabolic Activation: NONE, Method: PREINCUBATION", "value": "active; positive"},
      {"measurement": "mutagenic call", "setting": "Test System: AMES SALMONELLA TYPHIMURIUM, Strain/Indicator: TA98, Metabolic Activation: RAT LIVER S-9, AROCLOR, Method: PREINCUBATION", "value": "active; positive"},
      {"measurement": "mutagenic call", "setting": "Test System: AMES SALMONELLA TYPHIMURIUM, Strain/Indicator: TA98, Metabolic Activation: RAT, LIVER, S-9, AROCLOR 1254 (30%), Method: PREINCUBATION", "value": "inactive; negative"},
      {"measurement": "mutagenic call", "setting": "Test System: AMES SALMONELLA TYPHIMURIUM, Strain/Indicator: TA98, Metabolic Activation: RAT, LIVER, S-9, AROCLOR 1254, Method: STANDARD PLATE", "value": "active; positive"},
      {"measurement": "mutagenic call", "setting": "Test System: AMES SALMONELLA TYPHIMURIUM, Strain/Indicator: TA98, Metabolic Activation: RAT, LIVER, S-9, KC500 OR PHENOBARBITAL, Method: LIQUID SUSPENSION", "value": "active; positive"},
      {"measurement": "mutagenic call", "setting": "Test System: AMES SALMONELLA TYPHIMURIUM, Strain/Indicator: TA98, Metabolic Activation: RAT, LIVER, S-9, PHENOBARBITAL, Method: PREINCUBATION", "value": "active; positive"},
      {"measurement": "mutagenic call", "setting": "Test System: AMES SALMONELLA TYPHIMURIUM, Strain/Indicator: TA98NR, Metabolic Activation: NONE, Method: PREINCUBATION", "value": "inactive; negative"},
      {"measurement": "mutagenic call", "setting": "Test System: AMES SALMONELLA TYPHIMURIUM, Strain/Indicator: TA98NR, Metabolic Activation: RAT LIVER S-9, AROCLOR, Method: PREINCUBATION", "value": "active; positive"},
      {"measurement": "mutagenic call", "setting": "Test System: AMES SALMONELLA TYPHIMURIUM, Strain/Indicator: TA100, Metabolic Activation: HAMSTER, LIVER, S-9, AROCLOR 1254 (30%), Method: PREINCUBATION", "value": "active; positive"},
      {"measurement": "mutagenic call", "setting": "Test System: AMES SALMONELLA TYPHIMURIUM, Strain/Indicator: TA100, Metabolic Activation: MOUSE, INTACT UROTHELIAL CELLS, Method: FLUCTUATION TEST", "value": "active; positive"},
      {"measurement": "mutagenic call", "setting": "Test System: AMES SALMONELLA TYPHIMURIUM, Strain/Indicator: TA100, Metabolic Activation: MOUSE, KIDNEY, S-9, PHENETHYL ISOTHIOCYANATE, Method: PREINCUBATION", "value": "inactive; negative"},
      {"measurement": "mutagenic call", "setting": "Test System: AMES SALMONELLA TYPHIMURIUM, Strain/Indicator: TA100, Metabolic Activation: MOUSE, KIDNEY, S-9, Method: PREINCUBATION", "value": "active; positive"},
      {"measurement": "mutagenic call", "setting": "Test System: AMES SALMONELLA TYPHIMURIUM, Strain/Indicator: TA100, Metabolic Activation: MOUSE, LIVER, S-9, PHENETHYL ISOTHIOCYANATE, Method: PREINCUBATION", "value": "inactive; negative"},
      {"measurement": "mutagenic call", "setting": "Test System: AMES SALMONELLA TYPHIMURIUM, Strain/Indicator: TA100, Metabolic Activation: MOUSE, LIVER, S-9, Method: PREINCUBATION", "value": "active; positive"},
      {"measurement": "mutagenic call", "setting": "Test System: AMES SALMONELLA TYPHIMURIUM, Strain/Indicator: TA100, Metabolic Activation: MOUSE, LUNG, S-9, PHENETHYL ISOTHIOCYANATE, Method: PREINCUBATION", "value": "inactive; negative"},
      {"measurement": "mutagenic call", "setting": "Test System: AMES SALMONELLA TYPHIMURIUM, Strain/Indicator: TA100, Metabolic Activation: MOUSE, LUNG, S-9, Method: PREINCUBATION", "value": "inactive; negative"},
      {"measurement": "mutagenic call", "setting": "Test System: AMES SALMONELLA TYPHIMURIUM, Strain/Indicator: TA100, Metabolic Activation: NONE, Method: STANDARD PLATE", "value": "inactive; negative"},
      {"measurement": "mutagenic call", "setting": "Test System: AMES SALMONELLA TYPHIMURIUM, Strain/Indicator: TA100, Metabolic Activation: RABBIT, LIVER, S-9, Method: STANDARD PLATE", "value": "inactive; negative"},
      {"measurement": "mutagenic call", "setting": "Test System: AMES SALMONELLA TYPHIMURIUM, Strain/Indicator: TA100, Metabolic Activation: RABBIT, LUNG, S-9, Method: STANDARD PLATE", "value": "inactive; negative"},
      {"measurement": "mutagenic call", "setting": "Test System: AMES SALMONELLA TYPHIMURIUM, Strain/Indicator: TA100, Metabolic Activation: RABBIT, NASAL, S-9, Method: STANDARD PLATE", "value": "inactive; negative"},
      {"measurement": "mutagenic call", "setting": "Test System: AMES SALMONELLA TYPHIMURIUM, Strain/Indicator: TA100, Metabolic Activation: RAT LIVER S-9, AROCLOR, Method: PREINCUBATION", "value": "active; positive"},
      {"measurement": "mutagenic call", "setting": "Test System: AMES SALMONELLA TYPHIMURIUM, Strain/Indicator: TA100, Metabolic Activation: RAT, INTACT UROTHELIAL CELLS, Method: FLUCTUATION TEST", "value": "active; positive"},
      {"measurement": "mutagenic call", "setting": "Test System: AMES SALMONELLA TYPHIMURIUM, Strain/Indicator: TA100, Metabolic Activation: RAT, LIVER, S-9, AROCLOR 1254 (30%), Method: PREINCUBATION", "value": "inactive; negative"},
      {"measurement": "mutagenic call", "setting": "Test System: AMES SALMONELLA TYPHIMURIUM, Strain/Indicator: TA100, Metabolic Activation: RAT, LIVER, S-9, AROCLOR 1254, Method: PREINCUBATION", "value": "active; positive"},
      {"measurement": "mutagenic call", "setting": "Test System: AMES SALMONELLA TYPHIMURIUM, Strain/Indicator: TA100, Metabolic Activation: RAT, LIVER, S-9, KC500 OR PHENOBARBITAL, Method: LIQUID SUSPENSION", "value": "active; positive"},
      {"measurement": "mutagenic call", "setting": "Test System: AMES SALMONELLA TYPHIMURIUM, Strain/Indicator: TA100, Metabolic Activation: RAT, LIVER, S-9, PHENOBARBITAL, Method: PREINCUBATION", "value": "active; positive"},
      {"measurement": "mutagenic call", "setting": "Test System: AMES SALMONELLA TYPHIMURIUM, Strain/Indicator: TA100, Metabolic Activation: RAT, LUNG, S-9, Method: STANDARD PLATE", "value": "inactive; negative"},
      {"measurement": "mutagenic call", "setting": "Test System: AMES SALMONELLA TYPHIMURIUM, Strain/Indicator: TA100, Metabolic Activation: RAT, NASAL, S-9, Method: STANDARD PLATE", "value": "inactive; negative"},
      {"measurement": "mutagenic call", "setting": "Test System: AMES SALMONELLA TYPHIMURIUM, Strain/Indicator: TA100, Metabolic Activation: S-9, Method: PREINCUBATION", "value": "inactive; negative"},
      {"measurement": "mutagenic call", "setting": "Test System: AMES SALMONELLA TYPHIMURIUM, Strain/Indicator: TA102, Metabolic Activation: NONE, Method: PREINCUBATION", "value": "inactive; negative"},
      {"measurement": "mutagenic call", "setting": "Test System: AMES SALMONELLA TYPHIMURIUM, Strain/Indicator: TA102, Metabolic Activation: RAT LIVER S-9, AROCLOR, Method: PREINCUBATION", "value": "inactive; negative"},
      {"measurement": "mutagenic call", "setting": "Test System: AMES SALMONELLA TYPHIMURIUM, Strain/Indicator: TA104, Metabolic Activation: RAT, LIVER, S-9, AROCLOR 1254, Method: PREINCUBATION", "value": "active; positive"},
      {"measurement": "mutagenic call", "setting": "Test System: AMES SALMONELLA TYPHIMURIUM, Strain/Indicator: TA1530, Metabolic Activation: RAT, LIVER, S-9, PHENOBARBITAL, Method: PREINCUBATION", "value": "active; positive"},
      {"measurement": "mutagenic call", "setting": "Test System: AMES SALMONELLA TYPHIMURIUM, Strain/Indicator: TA1530, Metabolic Activation: RAT, LIVER, S-9, Method: STANDARD PLATE", "value": "active; positive"},
      {"measurement": "mutagenic call", "setting": "Test System: AMES SALMONELLA TYPHIMURIUM, Strain/Indicator: TA1535, Metabolic Activation: NONE, Method: PREINCUBATION", "value": "inactive; negative"},
      {"measurement": "mutagenic call", "setting": "Test System: AMES SALMONELLA TYPHIMURIUM, Strain/Indicator: TA1535, Metabolic Activation: RAT, LIVER, HEPATOCYTES, Method: PREINCUBATION", "value": "active; positive"},
      {"measurement": "mutagenic call", "setting": "Test System: AMES SALMONELLA TYPHIMURIUM, Strain/Indicator: TA1535, Metabolic Activation: RAT, LIVER, S-9, AROCLOR 1254, Method: PREINCUBATION", "value": "active; positive"},
      {"measurement": "mutagenic call", "setting": "Test System: AMES SALMONELLA TYPHIMURIUM, Strain/Indicator: TA1535, Metabolic Activation: RAT, LIVER, S-9, AROCLOR, Method: PREINCUBATION", "value": "active; positive"},
      {"measurement": "mutagenic call", "setting": "Test System: AMES SALMONELLA TYPHIMURIUM, Strain/Indicator: TA1535, Metabolic Activation: RAT, LIVER, S-9, SODIUM PHENOBARBITONE, Method: PREINCUBATION", "value": "active; positive"},
      {"measurement": "mutagenic call", "setting": "Test System: AMES SALMONELLA TYPHIMURIUM, Strain/Indicator: TA1535, Metabolic Activation: RAT, LIVER, S-9, Method: PREINCUBATION", "value": "active; positive"},
      {"measurement": "mutagenic call", "setting": "Test System: AMES SALMONELLA TYPHIMURIUM, Strain/Indicator: TA1535, Metabolic Activation: S-9, Method: PREINCUBATION", "value": "inactive; negative"},
      {"measurement": "mutagenic call", "setting": "Test System: AMES SALMONELLA TYPHIMURIUM, Strain/Indicator: TA1535ER, Metabolic Activation: NONE, Method: STANDARD PLATE", "value": "inactive; negative"},
      {"measurement": "mutagenic call", "setting": "Test System: AMES SALMONELLA TYPHIMURIUM, Strain/Indicator: TA1975, Metabolic Activation: RAT, LIVER, S-9, AROCLOR 1254, Method: PREINCUBATION", "value": "active; positive"}
    ]}
  ]
}
